Laboratory results reported in PMC6472966 (Analytical and bioanalytical chemistry, 2019).

Columns and labels:
[1] = bulk, off-chip studies; cited from earlier work
[2] = at high concentrations; cited from earlier work
[3] = cited from earlier work
HeLa cells = format: cell-based; conditions: 10 μM peptide, 60 min at 37°C, hierarchical cluster analysis, Fig. 4a

Substance	permeability efficiency on average compared to OWRWR and RWRWR [1]	cytotoxicity [2]	stability under intracellular conditions compared to TAT and ARG [3]	normalized fluorescence of the largest cluster (subpopulation) (HeLa cells)
FAM-YGRKKRRQRRR [TAT]	higher permeability efficiencies	high cytotoxicity	–	–
Ac-OWVRVpGO(FAM)WIRQ-NH2 [OWRWR]	–	–	enhanced stability	–
FAM-RRRRRRRRR [ARG]	higher permeability efficiencies	–	–	~ 1200
